# Target: T1, purified HDAC6 (Homo sapiens, UniProt Q9UBN7)
# T1 construct: purchased Cayman Chemical
# T1 sequence (Q9UBN7 1-1215): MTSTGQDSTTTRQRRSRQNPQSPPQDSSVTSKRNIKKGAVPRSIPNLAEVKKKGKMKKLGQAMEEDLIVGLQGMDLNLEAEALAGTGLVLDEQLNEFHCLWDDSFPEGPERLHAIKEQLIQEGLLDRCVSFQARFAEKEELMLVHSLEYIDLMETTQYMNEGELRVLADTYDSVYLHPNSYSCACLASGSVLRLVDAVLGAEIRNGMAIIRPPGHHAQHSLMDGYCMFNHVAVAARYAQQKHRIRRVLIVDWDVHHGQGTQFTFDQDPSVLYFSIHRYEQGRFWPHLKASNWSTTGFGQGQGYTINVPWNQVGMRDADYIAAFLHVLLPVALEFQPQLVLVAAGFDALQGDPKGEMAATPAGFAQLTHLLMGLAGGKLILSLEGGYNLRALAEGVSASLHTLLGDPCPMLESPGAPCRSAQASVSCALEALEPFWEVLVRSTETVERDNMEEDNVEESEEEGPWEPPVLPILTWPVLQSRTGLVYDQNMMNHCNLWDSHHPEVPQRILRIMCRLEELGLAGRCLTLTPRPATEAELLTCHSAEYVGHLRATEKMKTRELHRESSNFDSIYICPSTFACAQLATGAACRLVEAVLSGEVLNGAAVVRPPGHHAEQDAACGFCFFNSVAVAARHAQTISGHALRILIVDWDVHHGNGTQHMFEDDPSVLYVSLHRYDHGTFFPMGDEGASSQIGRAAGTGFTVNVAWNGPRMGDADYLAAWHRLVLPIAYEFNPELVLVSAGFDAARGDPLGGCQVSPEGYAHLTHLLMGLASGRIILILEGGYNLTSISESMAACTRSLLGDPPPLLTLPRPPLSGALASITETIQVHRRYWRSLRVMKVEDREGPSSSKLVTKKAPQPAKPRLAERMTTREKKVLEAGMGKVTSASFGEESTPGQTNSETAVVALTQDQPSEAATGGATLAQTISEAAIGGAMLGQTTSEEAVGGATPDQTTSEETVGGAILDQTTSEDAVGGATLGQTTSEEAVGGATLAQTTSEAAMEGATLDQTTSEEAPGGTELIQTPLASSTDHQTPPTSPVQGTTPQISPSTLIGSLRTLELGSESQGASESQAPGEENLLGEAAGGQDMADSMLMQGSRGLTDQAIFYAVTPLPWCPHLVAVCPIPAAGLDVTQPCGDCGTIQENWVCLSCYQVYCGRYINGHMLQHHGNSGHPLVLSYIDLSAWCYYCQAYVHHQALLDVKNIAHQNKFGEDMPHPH
# Test: Fluorogenic HDAC inhibition assay, HDAC6
# Type: biochemical
# Settings: purified HDAC6, fluorometric substrate
# Description: (§1) The hybrids were assessed to determine their HDACi and VDR agonist activity as well as their antiproliferative properties relative to DK-406. HDACi activity was assessed in vitro using an acetylated lysine substrate that releases a fluorescent reporter upon HDACi deacetylation and subsequent trypsin digestion. Increasing sidechain length of pyrimidine hybrids enhanced the potency of HDAC6 inhibition, with several compounds inhibiting HDAC6 with a sub-micromolar IC50, similar to that of DK-406 (Fig. 4a). […] Next, we analyzed the effects of compounds on levels of H3K9 and H3K27 acetylation in 4TO7 cells, which are controlled by class I HDACs[29],[30]. […] We also tested the capacity of analogues to induce tubulin acetylation, controlled by class II enzyme HDAC6[32], in 4TO7 cells. Based on their relative efficacy in cytotoxicity assays (see below, Fig. 5c,d), we used 10^–5 M DK-406 and 10^–6 M AM-193 for these studies.
# (§2) Figure 4 (a) Results of in vitro assays for inhibition of purified HDAC2 and HDAC6 by DK-406 and heterocyclic hybrids as measured by inhibition of deacetylation of a fluorometric substrate (see Methods for details). (b–d) Left: Western blotting analysis of histone 3 lysine 9 (H3K9; b), H3K27 (c), or acetylated tubulin (d), levels in 4TO7 cells treated with ligands for 6 h. Representative western-blots are shown from at least 3 biological replicates. Right: Graphs representing the average of the replicates, bars are mean ± SD. Each condition was compared to control. *: p ≤ 0.05, **: p ≤ 0.01, ***: p ≤ 0.001, ****: p ≤ 0.0001, ns: not significant. TEXT PRINTED IN THE PICTURE: (a) DK-406: HDAC6 IC50 (μM): 0.6; HDAC2 IC50 (μM): 0.5 | (a) AM-155: HDAC6 IC50 (μM): 2.8; HDAC2 IC50 (μM): 1.7 | (a) AM-171: HDAC6 IC50 (μM): 0.5; HDAC2 IC50 (μM): 9.6 | (a) AM-172: HDAC6 IC50 (μM): 0.3; HDAC2 IC50 (μM): 7.7 | (a) AM-191: HDAC6 IC50 (μM): 1.9; HDAC2 IC50 (μM): 8.1 | (a) AM-192: HDAC6 IC50 (μM): 0.5; HDAC2 IC50 (μM): 6.5 | (a) AM-193: HDAC6 IC50 (μM): 0.3; HDAC2 IC50 (μM): 7.2
# (§3) Purified HDAC2 and HDAC6 were purchased from Cayman Chemical. Boc-Lys(Ac)-7-amino-4-methylcoumarin (BocLys(Ac)-AMC) was used as substrate for the HDAC assays. Substrate solution was prepared as follow: Boc(Lys-Ac)-AMC was dissolved in DMSO and diluted with HDAC buffer (15 mM tris–HCl [pH 8.1], 250 μM EDTA, 250 mM NaCl, 10% glycerol) to give 1 mM solutions containing 1.7% DMSO. Trypsin was used to stop the reaction, releasing free AMC. The trypsin solution was prepared as follow: trypsin was dissolved in HDAC buffer to give a concentration of 10 mg/mL. Release of AMC was monitored by measuring the fluorescence at 460 nm (lex = 390 nm) with a microplate reader (SpectraMax Gemini from Molecular Devices) at 37 °C. The AMC signals were recorded against a blank with buffer, substrate and trypsin but without the enzyme. All experiments were carried out at least in triplicate.
# (§4) For HDAC inhibition assays, inhibitor diluted in 50 μL of HDAC buffer was mixed with 10 μL of diluted enzyme solution in HDAC buffer at room temperature. The HDAC reaction was started by adding 40 μL of substrate solution in HDAC buffer followed by 60 min of incubation with stirring at 37 °C. The reaction was stopped by adding 100 μL of trypsin solution. After a 30 min incubation with stirring at 37 °C, the release of AMC was monitored by measuring the fluorescence.
row,SMILES,IC50 [nM]
1,CCC(CC)(c1ccc(OCC(O)C(C)(C)C)c(C)c1)c1ccc(OCC(=O)NO)cn1 (centres unmarked) [AM-155],2800
2,CCC(CC)(c1ccc(OCC(O)C(C)(C)C)c(C)c1)c1ccc(OCCCC(=O)NO)cn1 (centres unmarked) [AM-171],500
3,CCC(CC)(c1ccc(OCCCCCC(=O)NO)cc1)c1ccc(OCC(O)C(C)(C)C)c(C)n1 (centres unmarked) [AM-193],300
4,CCC(CC)(c1ccc(C(=O)NCCCCCC(=O)NO)cc1)c1ccc(OCC(O)C(C)(C)C)c(C)c1 (centres unmarked) [DK-406],600

# Target: T2, purified HDAC2 (Homo sapiens, UniProt Q92769)
# T2 construct: purchased Cayman Chemical
# T2 sequence (Q92769 whole entry): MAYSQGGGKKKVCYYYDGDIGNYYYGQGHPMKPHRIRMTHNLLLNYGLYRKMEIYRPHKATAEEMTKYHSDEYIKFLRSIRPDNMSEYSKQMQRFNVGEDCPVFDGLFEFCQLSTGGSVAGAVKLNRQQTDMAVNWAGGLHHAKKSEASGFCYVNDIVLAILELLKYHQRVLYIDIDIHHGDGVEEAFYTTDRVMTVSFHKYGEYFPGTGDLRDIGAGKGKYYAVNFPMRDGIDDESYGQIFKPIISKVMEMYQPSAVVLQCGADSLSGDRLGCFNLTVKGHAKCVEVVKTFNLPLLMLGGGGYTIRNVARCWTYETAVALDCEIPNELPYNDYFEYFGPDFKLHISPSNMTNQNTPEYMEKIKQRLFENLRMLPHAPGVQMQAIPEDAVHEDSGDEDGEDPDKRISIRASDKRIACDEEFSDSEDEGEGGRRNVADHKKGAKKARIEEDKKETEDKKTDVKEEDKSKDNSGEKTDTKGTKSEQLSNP
# Test: Fluorogenic HDAC inhibition assay, HDAC2
# Type: biochemical
# Settings: purified HDAC2, fluorometric substrate
# Description: as §1, §2, §3, §4
row,SMILES,IC50 [nM]
1,CCC(CC)(c1ccc(OCC(O)C(C)(C)C)c(C)c1)c1ccc(OCC(=O)NO)cn1 (centres unmarked) [AM-155],1700
2,CCC(CC)(c1ccc(OCC(O)C(C)(C)C)c(C)c1)c1ccc(OCCCC(=O)NO)cn1 (centres unmarked) [AM-171],9600
3,CCC(CC)(c1ccc(OCCCCCC(=O)NO)cc1)c1ccc(OCC(O)C(C)(C)C)c(C)n1 (centres unmarked) [AM-193],7200
4,CCC(CC)(c1ccc(C(=O)NCCCCCC(=O)NO)cc1)c1ccc(OCC(O)C(C)(C)C)c(C)c1 (centres unmarked) [DK-406],500

# Source: article PMC9038752, “Molecular mechanisms of bifunctional vitamin D receptor agonist-histone deacetylase inhibitor hybrid molecules in triple-negative breast cancer” (Scientific Reports, 2022)
